Assay [1] addresses T1, CCR2 (Homo sapiens, UniProt P41597).
T1 construct: host or cells: THP-1 (human monocytic cell line), whole cells
In words: MCP-1 Receptor Binding Assay in THP-1 Cells. The following applies: 0.5 nM 125I labeled MCP-1, 2 hours at 30° C., read-out: Inhibition of MCP-1 Binding IC50, CCR2 Binding. On the procedure: Compounds of the invention were subjected to various representative biological tests. […] MCP-1 Receptor Binding Assay in THP-1 Cells
Human monocytic cell line THP-1 cells were obtained from American Type Culture Collection (Manassas, Va., USA). […] The cell density was maintained […].
1 μM cold MCP-1 was used for nonspecific binding.

Assay [2] deals with total BAL leukocyte count (and eosinophil count). Briefly: Mouse model of allergic asthma. Type of assay: in vivo. The conditions noted are these: 10 mpk, p.o. bid; OVA-sensitized mice; BAL on day 21. From the text: (§1) Mouse CCR2 knock-out/human CCR2 knock-in mice were generated using targeted 129Sv/Evbrd embryonic stem cell clones injected into C57BL/6 mice. Expression of the hCCR2 transcript was confirmed by quantitative reverse transcription-polymerase chain reaction performed on spleen and blood total RNA from homozygous hCCR2 knock-in mice. Backcrossing into C57BL/6 genetic background continued to the eighth generation. Transgenic mice were housed in a specific-pathogen-free, temperature-controlled facility that maintained a 12-hour light/12-hour dark cycle. Mice had free access to water and food. […]
Animals were sensitized by intraperitoneal injection of 10 μg chicken egg albumin (OVA) absorbed to 1 mg Imject® in 100 μL phosphate-buffered saline (PBS) on days 0 and 5. […] On day 21, 2 hours post the last dose of CCR2 compounds, bronchial reactivity to aerosolized methacholine was measured using a Buxco whole body plethysmograpgh. […] Bronchoalveolar lavage fluid was collected (1 mL) and total cells counted. The numbers of eosinophils, lymphocytes, monocytes and neutrophils were determined using cytospin analysis after Giemsa staining (Hema Tek 2000). Percent inhibition of total BAL leukocyte count (and eosinophil count) was calculated by comparing the compound-treated mice with vehicle-treated mice. […]

Assay [3] deals with cell migration. Briefly: Murine in vivo cell migration assay. Also noted: species or system mice. The following applies: 10 mpk, P.O. bid; human MCP-1 on small bowel serosa; 24 hours. The source says: (§2) Mouse CCR2 knock-out/human CCR2 knock-in mice were generated using targeted 129Sv/Evbrd embryonic stem cell clones injected into C57BL/6 mice. Expression of the hCCR2 transcript was confirmed by quantitative reverse transcription-polymerase chain reaction performed on spleen and blood total RNA from homozygous hCCR2 knock-in mice. Backcrossing into C57BL/6 genetic background continued to the eighth generation. Transgenic mice were housed in a specific-pathogen-free, temperature-controlled facility that maintained a 12-hour light/12-hour dark cycle. Mice had free access to water and food. Experimental procedures were carried out in accordance with institutional standards for animal care and were approved by the institute's animal care and use committee.
Animals were orally dosed with vehicle or CCR2 antagonists at 3, 10 and 30 mg/kg bid. Animals underwent anesthesia and laparotomy. A distal loop of small bowel (5 cm in length) was gently eventrated onto moist sterile gauze. Synthetic human MCP-1 ([…] sterile PBS) or PBS alone was administered drop-wise onto the serosa of the eventrated loop. A suture knot was placed into the mesentery to mark the terminus of the treated area. Twenty-four hours later, the animal was sacrificed and the segment of bowel plus the adjacent region was removed. The tissue was opened along the mesenteric border, pinned flat and the mucosa removed. […]

Assay [4] in a line: High-fat diet induced obesity and insulin resistance in mice. In kind it is in vivo. The conditions noted are these: 10 mpk, p.o. bid; high-fat diet obese mice; 40 days treatment.
Excerpt: as §1
Obesity was induced by a high-fat diet that derived approximately 60% calories from lipids (D-12492; Research Diets Inc.) in animals for 10-24 weeks at age of 7 weeks. […] Body weight and food intake and fasting blood glucose levels were monitored. Body mass was determined by a NMR analyzer (Burker MiniSpec). […] After an intraperitoneal bolus injection of recombinant human insulin (1.5 U/kg), blood glucose concentrations were measured using a Glucometer before and 15, 30, 45, 60, 90 and 120 minutes after injection. […] Blood glucose concentrations were measured before and after 15, 30, 60, 90, 120 minutes after an oral dose of glucose dissolved in water (1 g/kg). Energy expenditure analysis was monitored by a complete laboratory animal monitor system. […]

Assay [5] concerns MCP-1-induced monocyte recruitment to airway. Briefly: MCP-1-induced monocyte recruitment to airway of mice. In kind it is in vivo. The conditions noted are these: 10 mpk, p.o. bid; 4 μg MCP-1 intranasally; after 48 h.
Excerpt: as §2
Animals were orally treated with vehicle or CCR2 antagonists at 3, 10, and 30 mg/kg po bid). One hour later, the animals were intranasally dosed with 4 μg of MCP-1 in sterile saline. The animals were orally treated twice daily with vehicle or CCR2 antagonists. After 48 h, mice were euthanized by intraperitoneal injection of anesthesia solution (Sleepaway-Sodium pentobarbital). […] Percent inhibition was calculated by comparing the change in number of total leukocyte counts (including monocytes/macrophages and lymphocytes) of compound-treated mice to the vehicle-treated mice. […]

The subject of assay [6] is thioglycollate-induced peritonitis. In words: Thioglycollate-induced peritonitis in mice. The following applies: 10 mpk, p.o. bid; 72-hour time point; leukocytes in peritoneal lavage vs vehicle. In kind it is in vivo.
Excerpt: as §2
Animals were orally dosed with vehicle or CCR2 antagonists at 3, 10, 30 and 100 mg/kg bid). One hour later, the animals were intraperiponeally injected with sterile thioglycollate (25 mL/kg, ip, Sigma) for induction of peritonitis. Animals were orally treated twice daily with vehicle or CCR2 antagonists. At 72-hour time point, perinoteal cavities were lavaged with 10 mL of sterile saline. […] Percent inhibition of the thioglycollate-induced peritonitis was calculated by comparing the change in number of leukocytes of CCR2 antagonist treated mice to the vehicle-treated mice.

The text below walks through data of US8450304B2, “4-azetidinyl-1-heteroaryl-cyclohexanol antagonists of CCR2” (Janssen Pharmaceutica N.V., priority 2008, dated 2013).

Where only a bound is given, the exact number is not on record here.

T1 sequence (P41597 whole entry): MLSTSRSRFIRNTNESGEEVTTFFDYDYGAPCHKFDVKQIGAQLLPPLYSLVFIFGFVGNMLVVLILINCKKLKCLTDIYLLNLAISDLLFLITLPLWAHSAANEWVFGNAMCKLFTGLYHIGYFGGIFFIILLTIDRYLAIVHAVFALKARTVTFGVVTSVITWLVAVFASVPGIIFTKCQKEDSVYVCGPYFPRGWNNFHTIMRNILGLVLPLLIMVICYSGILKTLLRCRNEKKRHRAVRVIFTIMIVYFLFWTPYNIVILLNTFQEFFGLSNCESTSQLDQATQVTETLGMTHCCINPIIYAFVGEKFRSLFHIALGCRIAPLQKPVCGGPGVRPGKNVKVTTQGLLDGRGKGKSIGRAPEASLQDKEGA

In the case of `COc1cccc(C(=O)NCC(=O)NC2CN(C3CCC(O)(c4ccc(OC)nc4)CC3)C2)c1` (stereo not shown) [Example 23, N-({1-[4-Hydroxy-4-(6-methoxy-pyridin-3-yl)-cyclohexyl]-azetidin-3-ylcarbamoyl}-methyl)-3-methoxy-benzamide], the half-inhibitory concentration (IC50) in assay [1] turned out to be 14500 nM.

Turning to `COc1ccc(C2(O)CCC(N3CC(NC(=O)CNC(=O)c4cccc(Cl)c4)C3)CC2)cn1` (stereo not shown) [Example 24, 3-Chloro-N-({1-[4-hydroxy-4-(6-methoxy-pyridin-3-yl)-cyclohexyl]-azetidin-3-ylcarbamoyl}-methyl)-benzamide], the half-inhibitory concentration (IC50) in assay [1] is 1600 nM. With `O=C(CNC(=O)c1cccc(C(F)(F)F)c1)NC1CN(C2CCC(O)(c3cncs3)CC2)C1` (stereo not shown) [Example 40, N-{[1-(4-Hydroxy-4-thiazol-5-yl-cyclohexyl)-azetidin-3-ylcarbamoyl]-methyl}-3-trifluoromethyl-benzamide], in assay [2], the “reduction of cell count (efficacious if the inhibition reaches 30%)” value is recorded as “efficacious”. Further, the “blocking cell migration (efficacious if the inhibition of cell migration reaches 30% compared with vehicle-treated animals)” value in assay [3] is on record as “efficacious”. The “reduce body weight (percent of weight loss vs vehicle-treated mice)” value in assay [4] is above 8%. Further, in assay [5], the “percent inhibition of total leukocyte counts in BAL” value is above 50%. Further, the “inhibition of thioglycollate-induced peritonitis” value in assay [6] was above 50%. On to `O=C(CNC(=O)c1cccc(C(F)(F)F)c1)NC1CN(C2CCC(O)(c3cnc(O)s3)CC2)C1` (stereo not shown) [Example 48, N-({1-[4-Hydroxy-4-(2-hydroxy-thiazol-5-yl)-cyclohexyl]-azetidin-3-ylcarbamoyl}-methyl)-3-trifluoromethyl-benzamide], for which the IC50 in assay [1] was 560 nM.

Turning to `Nc1ncc(C2(O)CCC(N3CC(NC(=O)CNC(=O)c4cccc(C(F)(F)F)c4)C3)CC2)s1` (stereo not shown) [Example 49, N-({1-[4-(2-Amino-thiazol-5-yl)-4-hydroxy-cyclohexyl]-azetidin-3-ylcarbamoyl}-methyl)-3-trifluoromethyl-benzamide], in assay [1], the IC50 is 260 nM. In the case of `CN(C)c1ncc(C2(O)CCC(N3CC(NC(=O)CNC(=O)c4cccc(C(F)(F)F)c4)C3)CC2)s1` (stereo not shown) [Example 50, N-({1-[4-(2-Dimethylamino-thiazol-5-yl)-4-hydroxy-cyclohexyl]-azetidin-3-ylcarbamoyl}-methyl)-3-trifluoromethyl-benzamide], in assay [1], the IC50 stood at 560 nM. Still for that read-out and setting: to `O=C(CNC(=O)c1cccc(C(F)(F)F)c1)NC1CN(C2CCC(O)(c3cnc(N4CCCC4)s3)CC2)C1` (stereo not shown) [Example 51, N-({1-[4-Hydroxy-4-(2-pyrrolidin-1-yl-thiazol-5-yl)-cyclohexyl]-azetidin-3-ylcarbamoyl}-methyl)-3-trifluoromethyl-benzamide] belongs 3300 nM. For the molecule `COc1ncc(C2(O)CCC(N3CC(NC(=O)CNC(=O)c4cccc(C(F)(F)F)c4)C3)CC2)s1` (stereo not shown) [Example 52, N-({1-[4-Hydroxy-4-(2-methoxy-thiazol-5-yl)-cyclohexyl]-azetidin-3-ylcarbamoyl}-methyl)-3-trifluoromethyl-benzamide], the IC50 in assay [1] came out at 73 nM.

Consider `CC(C)(C)Oc1ncc(C2(O)CCC(N3CC(NC(=O)CNC(=O)c4cccc(C(F)(F)F)c4)C3)CC2)s1` (stereo not shown) [Example 54, N-({1-[4-(2-tert-Butoxy-thiazol-5-yl)-4-hydroxy-cyclohexyl]-azetidin-3-ylcarbamoyl}-methyl)-3-trifluoromethyl-benzamide], for which the IC50 in assay [1] was 280 nM. Still for that read-out and setting: to `N#CNc1ncc(C2(O)CCC(N3CC(NC(=O)CNC(=O)c4cccc(C(F)(F)F)c4)C3)CC2)s1` (stereo not shown) [Example 55, N-({1-[4-(2-Cyanoamino-thiazol-5-yl)-4-hydroxy-cyclohexyl]-azetidin-3-ylcarbamoyl}-methyl)-3-trifluoromethyl-benzamide] belongs 1200 nM. The same measure, in the same setting: to `CN(C)Cc1ncc(C2(O)CCC(N3CC(NC(=O)CNC(=O)c4cccc(C(F)(F)F)c4)C3)CC2)s1` (stereo not shown) [Example 56, N-({1-[4-(2-Dimethylaminomethyl-thiazol-5-yl)-4-hydroxy-cyclohexyl]-azetidin-3-ylcarbamoyl}-methyl)-3-trifluoromethyl-benzamide] belongs 310 nM; to `O=C(CNC(=O)c1cccc(C(F)(F)F)c1)NC1CN(C2CCC(O)(c3cc(Br)cs3)CC2)C1` (stereo not shown) [Example 60, N-({1-[4-(4-Bromo-thiophen-2-yl)-4-hydroxy-cyclohexyl]-azetidin-3-ylcarbamoyl}-methyl)-3-trifluoromethyl-benzamide], 230 nM; to `O=C(CNC(=O)c1cccc(C(F)(F)F)c1)NC1CN(C2CCC(O)(c3nc4ccccc4o3)CC2)C1` (stereo not shown) [Example 63, N-{[1-(4-Benzooxazol-2-yl-4-hydroxy-cyclohexyl)-azetidin-3-ylcarbamoyl]-methyl}-3-trifluoromethyl-benzamide], 1000 nM. Still for that read-out and setting: as for `O=C(CNC(=O)c1cc(F)cc(C(F)(F)F)c1)NC1CN(C2CCC(O)(c3cncs3)CC2)C1` (stereo not shown) [Example 65, 3-Fluoro-N-{[1-(4-hydroxy-4-thiazol-5-yl-cyclohexyl)-azetidin-3-ylcarbamoyl]-methyl}-5-trifluoromethyl-benzamide], the figure is 70 nM. Turning to `O=C(CNC(=O)c1cc(C(F)(F)F)ccc1C(F)(F)F)NC1CN(C2CCC(O)(c3nccs3)CC2)C1` (stereo not shown) [Example 68, N-{[1-(4-Hydroxy-4-thiazol-2-yl-cyclohexyl)-azetidin-3-ylcarbamoyl]-methyl}-2,5-bis-trifluoromethyl-benzamide], the half-inhibitory concentration (IC50) in assay [1] amounted to 500 nM.
